Legend:
[1] = tramadol and its metabolites; cited from earlier work
pupil diameter = experiment: Pupillometry; format: in vivo, human; conditions: trial A; for Pupil diameter, predose: before first dose of segment
healthy participants [2] = experiment: Drug-related adverse events
[3] = achiral analyses of blood; intoxication with the labelled substance; cited from earlier work
cold-induced pain [4] = experiment: Cold pressor test; format: in vivo, human; conditions: trial A
healthy participants [5] = experiment: Respiratory rate; conditions: trial B (with paroxetine), n = 60; MPD (SD)
cold-induced pain [6] = conditions: VAS, mean [SD], cited from earlier work
[7] = cited from earlier work
healthy participants [8] = experiment: Abuse liability visual analog scales; format: in vivo, human; conditions: trial A, n = 43, 0–100 mm VAS after seventh dose, M (SD)
[9] = 12 participants, 5 days rifampicin, 100 mg oral tramadol; cited from earlier work

## COc1cccc(C2(O)CCCCC2CN(C)C)c1 (centres unmarked) [Tramadol, tramadol]
[1]
  tramadol dose appearing in the urine: > 90%
Pupil diameter; after dosing, mean (SD)
  pupil diameter, mean paired reduction compared with placebo: −.7 (.6) mm
Pupil diameter; n = 43, M (SD)
  Pupil diameter, after seventh dose: 5.5 (1.1) mm
  Pupil diameter, predose: 6.1 (.9) mm
Pupil diameter; n = 43, M (SD), listed as tramadol
  Pupil diameter, predose: 6.1 [.9] mm
Healthy participants [2]; trial A
  Deaths: 0 (0) n (%)
  Severe AEs: 0 (0) n (%)
  participants reporting drug-related AEs: 49%
Healthy participants [2]; trial A, all
  Dizziness: 5(12) n (%)
  Euphoria: 0 (0) n (%)
  Feel abnormal: 1 (2) n (%)
  Feel hot: 0 (0) n (%)
  Headache: 7(17) n (%)
  Nausea: 5(12) n (%)
  Presyncope: 0 (0) n (%)
  Pruritus: 4(10) n (%)
  Somnolence: 2 (5) n (%)
  Spasticity: 1 (2) n (%)
  Sweating: 0 (0) n (%)
  Vomiting: 1 (2) n (%)
Healthy participants [2]; trial A, male
  Dizziness: 5(12) n (%)
  Euphoria: 0 (0) n (%)
  Feel abnormal: 1 (2) n (%)
  Feel hot: 0 (0) n (%)
  Headache: 7(17) n (%)
  Nausea: 5(12) n (%)
  Presyncope: 0 (0) n (%)
  Pruritus: 4(10) n (%)
  Somnolence: 2 (5) n (%)
  Spasticity: 1 (2) n (%)
  Sweating: 0 (0) n (%)
  Vomiting: 1 (2) n (%)
Healthy participants [2]; trial A, n = 43 (all male)
  All drug-related AEs: 20 (49) n (%)
Healthy participants [2]; trial B
  Deaths: 0 (0) n (%)
  Severe AEs: 0 (0) n (%)
Healthy participants [2]; trial B (with paroxetine)
  participants reporting drug-related AEs: 50%
Healthy participants [2]; trial B (with paroxetine), n = 60
  All drug-related AEs: 30 (50) n (%)
Healthy participants [2]; trial B, all
  Dizziness: 8(13) n (%)
  Euphoria: 1 (2) n (%)
  Feel abnormal: 2 (3) n (%)
  Feel hot: 0 (0) n (%)
  Headache: 6(10) n (%)
  Nausea: 8(13) n (%)
  Presyncope: 1 (2) n (%)
  Pruritus: 1 (2) n (%)
  Somnolence: 4(7) n (%)
  Spasticity: 3 (5) n (%)
  Sweating: 1 (2) n (%)
  Vomiting: 2 (3) n (%)
Healthy participants [2]; trial B, female
  Dizziness: 4(22) n (%)
  Euphoria: 0 (0) n (%)
  Feel abnormal: 0 (0) n (%)
  Feel hot: 0 (0) n (%)
  Headache: 6 (33) n (%)
  Nausea: 2(11) n (%)
  Presyncope: 0 (0) n (%)
  Pruritus: 1 (6) n (%)
  Somnolence: 2(11) n (%)
  Spasticity: 0 (0) n (%)
  Sweating: 0 (0) n (%)
  Vomiting: 0 (0) n (%)
Healthy participants [2]; trial B, male
  Dizziness: 4(10) n (%)
  Euphoria: 1 (2) n (%)
  Feel abnormal: 2 (5) n (%)
  Feel hot: 0 (0) n (%)
  Headache: 0 (0) n (%)
  Nausea: 6(14) n (%)
  Presyncope: 1 (2) n (%)
  Pruritus: 0 (0) n (%)
  Somnolence: 2 (5) n (%)
  Spasticity: 3 (7) n (%)
  Sweating: 1 (2) n (%)
  Vomiting: 2 (5) n (%)
Healthy participants [2]; trial B, same participants
  headache incidence, tramadol compared with desmetramadol AE profile: −40%
  nausea incidence, tramadol compared with desmetramadol AE profile: −50%
  presyncope incidence, tramadol compared with desmetramadol AE profile: −83%
  pruritus incidence, tramadol compared with desmetramadol AE profile: −75%
  somnolence incidence, tramadol compared with desmetramadol AE profile: −60%
  vomiting incidence, tramadol compared with desmetramadol AE profile: −78%
[3]
  mean blood M1 level in fatal intoxications: 1,900 ng/mL
cold-induced pain [4]
  average duration of tolerance to pain: 62 s
Healthy participants [5]
  Average postdose respiratory rate, mean paired difference versus placebo: −.34 [.99] min^−1
cold-induced pain [6]; after a single 50 mg dose of tramadol
  peak mean pain perception to cold after tramadol: 5.0 [2.3] cm
cold-induced pain [6]; before a single 50 mg dose of tramadol
  peak mean pain perception to cold before tramadol: 6.3 [2.0] cm
[7]
  lethal dose: > 5 g
[7]; in vivo
  median ingested dose in overdose with respiratory depression: 2,500 mg
[7]; range = 450−6,000 mg
  median ingested dose in overdose with no respiratory depression: 1,000 mg
Healthy participants [8]
  Drug liking-disliking: 48(15) mm
  Strength of drug effect: 32 (29) mm
  Take drug again: 47(18) mm
Healthy participants [8]; listed as tramadol
  Strength of drug effect: 32 [29] mm
[9]
  decrease of AUC by rifampicin induction: 59%
